Results as given in patent EP0112419A1, “Pharmacologically active naphthotriazole derivatives” (BEECHAM GROUP PLC, priority 1982, dated 1984).

Tested on: rat passive peritoneal anaphylaxis
Test: Rat passive peritoneal anaphylaxis (PPA)
Format: in vivo
Details: for Concentration in peritoneal fluid as % of mean of controls (Mean ± SEM, 5-7 rats per group) Dye: Pontamine Sky Blue, OD at 625 nm; for Concentration in peritoneal fluid as % of mean of controls (Mean ± SEM, 5-7 rats per group) Histamine: fluid collected 5 min after challenge
Description: • a) inhibit rat passive peritoneal anaphylaxis; and • b) antagonise the spasmogenic effects of slow reacting substance of anaphylaxis, SRS-A, on isolated guinea pig ileum.
Charles River Sprague Dawley male rats of 250 - 300 g. and Dunkin Hartley male white guinea pigs of 250 - 300 g. were used. v
The method has been described previously. (Ross, Janet W., Smith, H. and Spicer, Barbara A. Increased vascular permeability during passive peritoneal anaphylaxis in the rat. Int. Arch. Allergy appl. Immun., 51, 226, 1976).
Rats were sensitised by giving an intraperitoneal injection of 0.5 ml of Bordetella pertussis vaccine (4 x 10^10 organisms/ml Burroughs Wellcome, London) and a subcutaneous injection of 0.5 ml of an emulsion of 100 mg of ovalbumin (chicken egg albumin, crystallised and lyophilised, grade 3, Sigma, London) in 2 ml of isotonic saline and 3 ml of Freund's incomplete adjuvant (Difco Laboratories, Michigan, USA) .
The rats were bled by cardiac puncture, on day 18, the blood was pooled, and the serum separated, stored at -20°C and thawed only once before use.
Rats were each given an intraperitoneal injection of 2 ml of a 1:5 dilution of the rat anti-serum in isotonic saline. Two hours later 0.3 ml of a 5% solution of Pontamine Sky Blue (Raymond A. Lamb, London) in isotonic saline was injected intravenously, followed by an intraperitoneal injection of the test compound in 1 ml of saline; (control rats received 1 ml of saline); followed 30 seconds later by an intraperitoneal injection of 5 ml of Tyrode's solution containing […]/ml heparin and 0.4 mg/ml of ovalbumin. The concentrations of the compounds were quoted as those in the 6 ml of fluid injected intraperitoneally. Exactly five minutes after challenge the rats were stunned and bled and their peritoneal fluids were collected by,opening their peritoneal cavities over funnels into polycarbonate tubes in ice. The supernatants were separated from the cellular residue by centrifuging at 150 g. for five minutes and were retained for assay of dye and histamine. Any samples obviously contaminated with blood were not used for estimation of dye. Groups of at least five rats were used for each dose of compound and the treatments were randomised.
Dye was assayed within two hours by measurement of optical density (OD) at 625 nm.
For histamine assay 0.5 ml samples of the supernatants were added to 1 ml volumes of 12% trichloracetic acid and stored at -20°C. The deproteinised samples were assayed using an automated spectrofluorimetric system (Technicon Autoanalyser) by a method similar to that of Evans, D.P., Lewis, J.A. and Thomson, D.S.: (An automated fluorimetric assay for the rapid determination of histamine in biological fluids. Life Sci., 12, 327, 1973).

[1] = conc. injected i.p. 2 x 10^-5 M
[2] = conc. injected i.p. 2 x 10^-6 M
[3] = conc. injected i.p. 2 x 10^-7 M
[4] = conc. injected i.p. 2 x 10^-8 M

SMILES	Concentration in peritoneal fluid as % of mean of controls (Mean ± SEM, 5-7 rats per group) Dye [1] [%]	Concentration in peritoneal fluid as % of mean of controls (Mean ± SEM, 5-7 rats per group) Histamine [1] [%]	Concentration in peritoneal fluid as % of mean of controls (Mean ± SEM, 5-7 rats per group) Dye [2] [%]	Concentration in peritoneal fluid as % of mean of controls (Mean ± SEM, 5-7 rats per group) Histamine [2] [%]	Concentration in peritoneal fluid as % of mean of controls (Mean ± SEM, 5-7 rats per group) Dye [3] [%]	Concentration in peritoneal fluid as % of mean of controls (Mean ± SEM, 5-7 rats per group) Histamine [3] [%]	Concentration in peritoneal fluid as % of mean of controls (Mean ± SEM, 5-7 rats per group) Dye [4] [%]	Concentration in peritoneal fluid as % of mean of controls (Mean ± SEM, 5-7 rats per group) Histamine [4] [%]
CCCc1c(OCCCOc2ccc3c(c2)C(=O)c2nn[nH]c2C3=O)ccc(C(C)=O)c1O [Example 1 and 2, 6-[3-(4-Acetyl-3-hydroxy-2-n-propylphenoxy)propoxy]-4,9-dihydro-4,9-dioxo-1H-naphtho[2,3-d]-v-triazole]	32 ± 5	10 ± 1	58 ± 8	27 ± 8	63 ± 5	57 ± 11		
CCCc1c(OCCCOc2cccc3c2C(=O)c2nn[nH]c2C3=O)ccc(C(C)=O)c1O [Example 3, 5-[3-(4-Acetyl-3-hydroxy-2-n-propylphenoxy)-pro^poxy]-4,9-dihydro-4,9-dioxo-1H-naphtho[2,3-d]-v-triazole]	57 ± 4	25 ± 3	94 ± 8	62 ± 11				
CCCc1c(OCC(O)COc2ccc3c(c2)C(=O)c2nn[nH]c2C3=O)ccc(C(C)=O)c1O (centres unmarked) [Example 4, 6-[3-(4-Acetyl-3-hydroxy-2-n-propylphenoxy)-2-hydroxy-pronoxy]-4,9-dihydro-4,9-dioxo-1H-naphtho[2,3-d]-v-triazole]					58 ± 4	38 ± 4	72 ± 11	64 ± 11
